Earlier results on one compound are cited in patent US12208061B2 (EXORAO LIFE SCIENCE S.R.L., priority 2019, dated 2025).

Molecules are shown by their SMILES. Like-named read-outs stand apart in the source and are kept apart here.

The subject of data set [1] is gram-negative aerobic pathogens including Pseudomonas aeruginosa. Conditions: in vitro.
The conditions of data set [2]: solution for intravenous infusion.
The test system of data set [3] is gram-positive bacteria or anaerobes. Conditions: against gram-positive bacteria or anaerobes.

Turning to `C[C@H]1[C@H](NC(=O)/C(=N\OC(C)(C)C(=O)O)c2csc(N)n2)C(=O)N1S(=O)(=O)O` [Aztreonam, (Z)-2-[[[(2-amino-4-thiazolyl)[[(2S,3S)-2-methyl-4-oxo-1-sulfo-3-azetidinyl]carbamoyl]methylene]amino]oxy]-2-methylpropionic acid], the “pH range over which antimicrobial activity is maintained” value in data set [1] is reported as 6 to 8. In addition, the results for the “time within which reconstituted solution should be used” value in data set [2] (controlled room temperature) and in data set [2] (refrigerated at 2° C. to 8° C.) were no more than 48 h and “within seven days”, respectively. Further, the antimicrobial activity result in data set [3] was “no useful activity”.
